Reference: ChEMBL document CHEMBL1201862, “PubChem BioAssay data set” (2004)
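Interpolation was linear, between the two tested concentrations surrounding the appropriate level; five concentrations were tested over 48 hours in 96-well plates. Abbreviation: GI50, concentration required for 50% inhibition of growth.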 Calls of active or inactive are those of the source. Rule as the data show it: active = GI50 up to about 1.1 µM and inactive = higher.

What was measured:
Assay in all cases: NCI tumour cell line growth inhibition, 48 h
[1] = test system: LOX IMVI
[2] = test system: OVCAR-3
[3] = test system: NCI-H23
[4] = test system: TK-10
[5] = test system: HOP-62
[6] = test system: DU-145
[7] = test system: HCT-15
[8] = test system: ACHN
[9] = test system: K562
[10] = test system: Hs-578T
[11] = test system: 786-0
[12] = test system: SNB-19
[13] = test system: MDA-MB-231
[14] = test system: OVCAR-4
[15] = test system: SK-MEL-5
[16] = test system: RPMI-8226
[17] = test system: SK-OV-3
[18] = test system: UACC-257
[19] = test system: SR
[20] = test system: BT-549

SMILES: CC(=O)OC/C=C/[C@H](O[Si](C)(C)C(C)(C)C)[C@@H](O)/C=C/COC(C)=O
- GI50 [1]: 76.6 µM (inactive)
- GI50 [2]: > 100 µM (inactive)
- GI50 [3]: > 100 µM (inactive)
- GI50 [4]: > 100 µM (inactive)
- GI50 [5]: > 100 µM (inactive)
- GI50 [6]: > 100 µM (inactive)
- GI50 [7]: > 100 µM
- GI50 [8]: > 100 µM (inactive)
- GI50 [9]: 23 µM (inactive)
- GI50 [10]: > 100 µM (inactive)
- GI50 [11]: > 100 µM (inactive)
- GI50 [12]: > 100 µM (inactive)
- GI50 [13]: > 100 µM (inactive)
- GI50 [14]: > 100 µM (inactive)
- GI50 [15]: > 100 µM (inactive)
- GI50 [16]: 20.6 µM (inactive)
- GI50 [17]: > 100 µM (inactive)
- GI50 [18]: > 100 µM (inactive)
- GI50 [19]: 30.4 µM (inactive)
- GI50 [20]: > 100 µM (inactive)
